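In this assay, cells in 96-well plates receive the compound at five concentrations for 48 hours. Endpoints are linearly interpolated between the surrounding concentrations. Abbreviation: GI50, concentration required for 50% inhibition of growth. TGI: total growth inhibition.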
Experiments:
Test in all cases: NCI anticancer screen, dose series, 48 h
UACC-257 melanoma = tested on: UACC-257 melanoma
HT29 colon = tested on: HT29 colon
NCI/ADR-RES ovarian = tested on: NCI/ADR-RES ovarian
TK-10 renal = tested on: TK-10 renal
SF-539 CNS = tested on: SF-539 CNS
A549 NSCLC = tested on: A549 NSCLC
UO-31 renal = tested on: UO-31 renal
SNB-75 CNS = tested on: SNB-75 CNS
LOX IMVI melanoma = tested on: LOX IMVI melanoma
COLO 205 colon = tested on: COLO 205 colon
HOP-62 NSCLC = tested on: HOP-62 NSCLC
SF-295 CNS = tested on: SF-295 CNS
MOLT-4 leukemia = tested on: MOLT-4 leukemia
BT-549 breast = tested on: BT-549 breast
CAKI-1 renal = tested on: CAKI-1 renal
OVCAR-3 ovarian = tested on: OVCAR-3 ovarian
HCT-116 colon = tested on: HCT-116 colon
NCI-H226 lung = tested on: NCI-H226 lung
MDA-MB-231 breast = tested on: MDA-MB-231 breast
SR leukemia = tested on: SR leukemia
HL-60(TB) leukemia = tested on: HL-60(TB) leukemia
U251 CNS = tested on: U251 CNS
NCI-H460 lung = tested on: NCI-H460 lung
NCI-H522 lung = tested on: NCI-H522 lung
OVCAR-5 ovarian = tested on: OVCAR-5 ovarian
MCF7 breast = tested on: MCF7 breast
NCI-H23 lung = tested on: NCI-H23 lung
786-0 renal = tested on: 786-0 renal
ACHN renal = tested on: ACHN renal
SK-MEL-28 melanoma = tested on: SK-MEL-28 melanoma
KM12 colon = tested on: KM12 colon
EKVX NSCLC = tested on: EKVX NSCLC
SF-268 CNS = tested on: SF-268 CNS
PC-3 prostate = tested on: PC-3 prostate
SW-620 colon = tested on: SW-620 colon
RXF 393 renal = tested on: RXF 393 renal
DU-145 prostate = tested on: DU-145 prostate
RPMI-8226 leukemia = tested on: RPMI-8226 leukemia
SN12C renal = tested on: SN12C renal
SK-MEL-2 melanoma = tested on: SK-MEL-2 melanoma
K-562 leukemia = tested on: K-562 leukemia
SNB-19 CNS = tested on: SNB-19 CNS
MDA-MB-435 = tested on: MDA-MB-435
OVCAR-8 ovarian = tested on: OVCAR-8 ovarian
HCT-15 colon = tested on: HCT-15 colon
IGROV1 ovarian = tested on: IGROV1 ovarian
HS 578T breast = tested on: HS 578T breast
UACC-62 melanoma = tested on: UACC-62 melanoma
SK-MEL-5 melanoma = tested on: SK-MEL-5 melanoma

`COc1ccc(Nc2c3ccccc3nc3c2c2ccccc2n3C)cc1` gave a GI50 (UACC-257 melanoma) of 37.5 µM, a TGI (UACC-257 melanoma) greater than 100 µM and a GI50 (HT29 colon) of 13.6 µM. It also gave a TGI (HT29 colon) greater than 100 µM, a GI50 (NCI/ADR-RES ovarian) of 34 µM and a TGI (NCI/ADR-RES ovarian) greater than 100 µM. The GI50 (TK-10 renal) was 13 µM, the TGI (TK-10 renal) was greater than 100 µM and the GI50 (SF-539 CNS) was 8.78 µM. For the same compound, the TGI (SF-539 CNS) was 27.5 µM, the GI50 (A549 NSCLC) was 17.8 µM and the TGI (A549 NSCLC) was greater than 100 µM. It also gave a GI50 (UO-31 renal) greater than 100 µM, a TGI (UO-31 renal) greater than 100 µM and a GI50 (SNB-75 CNS) greater than 100 µM. For the same compound, the TGI (SNB-75 CNS) was greater than 100 µM, the GI50 (LOX IMVI melanoma) was 7.62 µM and the TGI (LOX IMVI melanoma) was 47.2 µM. The GI50 (COLO 205 colon) was 15.2 µM, the TGI (COLO 205 colon) was greater than 100 µM and the GI50 (HOP-62 NSCLC) was greater than 100 µM. For the same compound, the TGI (HOP-62 NSCLC) was greater than 100 µM, the GI50 (SF-295 CNS) was 22.3 µM and the TGI (SF-295 CNS) was greater than 100 µM. It also gave a GI50 (MOLT-4 leukemia) of 1.88 µM, a TGI (MOLT-4 leukemia) of 5.36 µM and a GI50 (BT-549 breast) of 11 µM. For the same compound, the TGI (BT-549 breast) was 43.4 µM, the GI50 (CAKI-1 renal) was 30.7 µM and the TGI (CAKI-1 renal) was greater than 100 µM. It also gave a GI50 (OVCAR-3 ovarian) of 23.5 µM, a TGI (OVCAR-3 ovarian) greater than 100 µM and a GI50 (HCT-116 colon) of 30 µM. It also gave a TGI (HCT-116 colon) greater than 100 µM, a GI50 (NCI-H226 lung) of 27.6 µM and a TGI (NCI-H226 lung) greater than 100 µM. The GI50 (MDA-MB-231 breast) was 34.8 µM, the TGI (MDA-MB-231 breast) was greater than 100 µM and the GI50 (SR leukemia) was 2.75 µM. It also gave a TGI (SR leukemia) of 14 µM, a GI50 (HL-60(TB) leukemia) of 3.99 µM and a TGI (HL-60(TB) leukemia) of 45.6 µM. It also gave a GI50 (U251 CNS) of 36.5 µM, a TGI (U251 CNS) greater than 100 µM and a GI50 (NCI-H460 lung) of 5.2 µM. The TGI (NCI-H460 lung) was greater than 100 µM, the GI50 (NCI-H522 lung) was 78.3 µM and the TGI (NCI-H522 lung) was greater than 100 µM. It also gave a GI50 (OVCAR-5 ovarian) greater than 100 µM, a TGI (OVCAR-5 ovarian) greater than 100 µM and a GI50 (MCF7 breast) of 28.3 µM. For the same compound, the TGI (MCF7 breast) was 86.3 µM, the GI50 (NCI-H23 lung) was 34.8 µM and the TGI (NCI-H23 lung) was greater than 100 µM. The GI50 (786-0 renal) was 40.6 µM, the TGI (786-0 renal) was greater than 100 µM and the GI50 (ACHN renal) was 21.6 µM. The TGI (ACHN renal) was greater than 100 µM, the GI50 (SK-MEL-28 melanoma) was greater than 100 µM and the TGI (SK-MEL-28 melanoma) was greater than 100 µM. The GI50 (KM12 colon) was 6.61 µM, the TGI (KM12 colon) was 53.3 µM and the GI50 (EKVX NSCLC) was 7.91 µM. It also gave a TGI (EKVX NSCLC) of 60.3 µM, a GI50 (SF-268 CNS) of 28 µM and a TGI (SF-268 CNS) greater than 100 µM. The GI50 (PC-3 prostate) was 11.1 µM, the TGI (PC-3 prostate) was 54.2 µM and the GI50 (SW-620 colon) was 41.7 µM. The TGI (SW-620 colon) was greater than 100 µM, the GI50 (RXF 393 renal) was 64.9 µM and the TGI (RXF 393 renal) was greater than 100 µM. It also gave a GI50 (DU-145 prostate) of 15.6 µM, a TGI (DU-145 prostate) greater than 100 µM and a GI50 (RPMI-8226 leukemia) of 3.77 µM. For the same compound, the TGI (RPMI-8226 leukemia) was 24.7 µM, the GI50 (SN12C renal) was 58.6 µM and the TGI (SN12C renal) was greater than 100 µM. It also gave a GI50 (SK-MEL-2 melanoma) of 57.6 µM, a TGI (SK-MEL-2 melanoma) greater than 100 µM and a GI50 (K-562 leukemia) of 5.57 µM. For the same compound, the TGI (K-562 leukemia) was greater than 100 µM, the GI50 (SNB-19 CNS) was greater than 100 µM and the TGI (SNB-19 CNS) was greater than 100 µM. The GI50 (MDA-MB-435) was 30.5 µM, the TGI (MDA-MB-435) was greater than 100 µM and the GI50 (OVCAR-8 ovarian) was 57.5 µM. It also gave a TGI (OVCAR-8 ovarian) greater than 100 µM, a GI50 (HCT-15 colon) of 11.1 µM and a TGI (HCT-15 colon) greater than 100 µM. For the same compound, the GI50 (IGROV1 ovarian) was 15.3 µM, the TGI (IGROV1 ovarian) was greater than 100 µM and the GI50 (HS 578T breast) was 46.4 µM. It also gave a TGI (HS 578T breast) greater than 100 µM, a GI50 (UACC-62 melanoma) of 11.4 µM and a TGI (UACC-62 melanoma) of 41.5 µM. The GI50 (SK-MEL-5 melanoma) was 14 µM and the TGI (SK-MEL-5 melanoma) was 37.4 µM.
